Our source for the MIC values is patent publication US20110015119A1, “NOVEL SEMI-SYNTHETIC GLYCOPEPTIDES AS ANTIBACTERIAL AGENTS” (LEAD THERAPEUTICS, INC., priority 2009, published 2011).

As usually defined, the MIC is the lowest concentration found to suppress growth.

≈ marks a conversion by molar mass, not a printed value. Like-named read-outs stand apart in the source and are kept apart here.

Assay type in all cases: cell-based
The subject of assay [1] is Staphylococcus aureus 757 (MRSA). In words: MIC by broth microdilution, SA 757. To be noted: read-out: MIC SA 757. A digest of the protocol:
(§1)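 Mueller-Hinton broth served as medium for CLSI broth microdilution MIC determination. Serial dilutions were performed robotically.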
(Broth dilution looks for growth in wells or tubes with falling amounts of substance.)

The test system of assay [2] is Enterococcus faecium 752 (VRE, Van A). In words: MIC by broth microdilution, EFcm 752. To be noted: class symbols. A digest of the protocol:
as §1

The test system of assay [3] is Streptococcus pyogenes 712. In words: MIC by broth microdilution, SPY 712. An outline of the steps:
as §1

The subject of assay [4] is Staphylococcus aureus 2012 (VISA). Briefly: MIC by broth microdilution, SA 2012. To be noted: class symbols. A digest of the protocol: as §1
Assay [5] deals with Enterococcus faecalis 848 (VRE, Van A). In words: MIC by broth microdilution, EFc 848. Conditions: class symbols. An outline of the steps: as §1
The test system of assay [6] is Staphylococcus epidermidis 835. In words: MIC by broth microdilution, SE 835. An outline of the steps:
as §1

In another assay the test system is Enterococcus faecium 800. Briefly: MIC by broth microdilution, EFcm 800. A digest of the protocol: as §1
In assay [7] the test system is Enterococcus faecalis 101 (ATCC 29212). In words: MIC by broth microdilution, EFc 101. Conditions: class symbols. An outline of the steps:
as §1

The subject of assay [8] is Staphylococcus aureus 100 (ATCC 29213). Briefly: MIC by broth microdilution, SA 100. An outline of the steps: as §1
Assay [9] deals with Streptococcus pneumoniae 1195 (ATCC 49619). In words: MIC by broth microdilution, SPNE 1195. An outline of the steps:
as §1

Assay [10] deals with Staphylococcus epidermidis 831 (MRSE). Briefly: MIC by broth microdilution, SE 831. To be noted: read-out: MIC SE 831. An outline of the steps:
as §1

[11] abbreviates: Enterococcus faecium, VRE, read-out: MIC E FCM 752, Enterococcus faecium 752 (VRE, Van A).
The mark [12] stands for this setting: Streptococcus pyogenes, 712, read-out: MIC S PYO 712.
Where [13] appears, read: Staphylococcus aureus, VISA, read-out: MIC SA 2012, Staphylococcus aureus 2012 (VISA).
[14] abbreviates: Enterococcus faecalis, VRE, read-out: MIC E FC 848, Enterococcus faecalis 848 (VRE, Van A).
Setting [15] is: Staphylococcus epidermidis, 835, read-out: MIC SE 835.
Where [16] appears, read: Enterococcus faecium, 800, read-out: MIC E FCM 800.
[17] abbreviates: Enterococcus faecalis, ATCC29212, read-out: MIC E FC 101, Enterococcus faecalis 101 (ATCC 29212).
Setting [18] is: Staphylococcus aureus, ATCC29213, read-out: MIC SA 100.
Where [19] appears, read: Streptococcus pneumoniae, ATCC49619, read-out: MIC S PNE 1195.
The mark [20] stands for this setting: Staphylococcus epidermidis, MRSE.

Turning to `CCCCc1ccc(NC(=O)Oc2cc(O)c3c(c2)[C@@H](C(=O)NC2C4CC5CC(C4)CC2C5)NC(=O)[C@H]2NC(=O)[C@H](NC(=O)[C@@H]4NC(=O)[C@H](CC(N)=O)NC(=O)[C@H](NC(=O)[C@@H](CC(C)C)NC)[C@H](O)c5ccc(c(Cl)c5)Oc5cc4cc(c5O[C@@H]4O[C@H](CO)[C@@H](O)[C@H](O)[C@H]4O[C@H]4C[C@](C)(N)[C@H](O)[C@H](C)O4)Oc4ccc(cc4Cl)[C@H]2O)c2ccc(O)c-3c2)cc1` (some centres unmarked) [Compound 331], the MIC in assay [1] (Staphylococcus aureus, MRSA) is 0.01 to 0.5 µg/mL (≈ 0.00569 to 0.284 µM); in assay [2] (setting [11]), 2 to 4 µg/mL (≈ 1.14 to 2.28 µM); in assay [3] (setting [12]) it was 0.01 to 0.5 µg/mL (≈ 0.00569 to 0.284 µM); in assay [4] (setting [13]), 1 to 2 µg/mL (≈ 0.569 to 1.14 µM); in assay [5] (setting [14]), more than 16 µg/mL; in [6] (setting [15]), 0.5 to 1 µg/mL (≈ 0.284 to 0.569 µM). The MIC fell in the range of 0.01 to 0.5 µg/mL (≈ 0.00569 to 0.284 µM) with Enterococcus faecium 800 (setting [16]); 0.5 to 1 µg/mL (≈ 0.284 to 0.569 µM) in assay [7] (setting [17]); 0.01 to 0.5 µg/mL (≈ 0.00569 to 0.284 µM) in assay [8] (setting [18]); 0.01 to 0.5 µg/mL (≈ 0.00569 to 0.284 µM) in assay [9] (setting [19]); 0.01 to 0.5 µg/mL (≈ 0.00569 to 0.284 µM) in assay [10] (setting [20]).
As for `CCCCCCc1ccc(S(=O)(=O)NCCCCCCNCc2c(O)cc3c(c2O)-c2cc(ccc2O)[C@H]2NC(=O)[C@@H]4NC(=O)[C@H](CC(N)=O)NC(=O)[C@H](NC(=O)[C@@H](CC(C)C)NC)[C@H](O)c5ccc(c(Cl)c5)Oc5cc4cc(c5O[C@@H]4O[C@H](CO)[C@@H](O)[C@H](O)[C@H]4O[C@H]4C[C@](C)(NC(=O)[C@H](N)C(C)C)[C@H](O)[C@H](C)O4)Oc4ccc(cc4Cl)[C@@H](O)[C@H](NC2=O)C(=O)N[C@@H]3C(=O)O)cc1` (atropisomer, axis not shown) [Compound 343], the MIC fell in the range of 0.01 to 0.5 µg/mL (≈ 0.00526 to 0.263 µM) in assay [1] (Staphylococcus aureus 757 (MRSA), class symbols); 1 to 2 µg/mL (≈ 0.526 to 1.05 µM) in assay [2] (Enterococcus faecium 752 (VRE, Van A), read-out: MIC E FCM 752); 0.01 to 0.5 µg/mL (≈ 0.00526 to 0.263 µM) in [3] (Streptococcus pyogenes 712, class symbols, read-out: MIC S PYO 712); 0.01 to 0.5 µg/mL (≈ 0.00526 to 0.263 µM) in assay [4] (Staphylococcus aureus 2012 (VISA), read-out: MIC SA 2012); 8 to 16 µg/mL (≈ 4.21 to 8.42 µM) in assay [5] (Enterococcus faecalis 848 (VRE, Van A), read-out: MIC E FC 848); 0.01 to 0.5 µg/mL (≈ 0.00526 to 0.263 µM) in assay [6] (Staphylococcus epidermidis 835, class symbols, read-out: MIC SE 835). The MIC in the assay with Enterococcus faecium 800 (Enterococcus faecium 800, class symbols, read-out: MIC E FCM 800) fell in the range of 0.01 to 0.5 µg/mL (≈ 0.00526 to 0.263 µM); in [7] (ATCC29212, Enterococcus faecalis 101 (ATCC 29212), read-out: MIC E FC 101), 0.01 to 0.5 µg/mL (≈ 0.00526 to 0.263 µM); in assay [8] (ATCC29213, Staphylococcus aureus 100 (ATCC 29213), class symbols, read-out: MIC SA 100), 0.01 to 0.5 µg/mL (≈ 0.00526 to 0.263 µM); in assay [9] (ATCC49619, Streptococcus pneumoniae 1195 (ATCC 49619), class symbols, read-out: MIC S PNE 1195) it was 0.01 to 0.5 µg/mL (≈ 0.00526 to 0.263 µM); in assay [10] (Staphylococcus epidermidis 831 (MRSE), class symbols) it was 0.01 to 0.5 µg/mL (≈ 0.00526 to 0.263 µM).
`CCCCCCc1ccc(NC(=O)NCCCCCCNC(=O)Oc2cc(O)c3c(c2)[C@@H](C(=O)O)NC(=O)[C@H]2NC(=O)[C@H](NC(=O)[C@@H]4NC(=O)[C@H](CC(N)=O)NC(=O)[C@H](NC(=O)[C@@H](CC(C)C)NC)[C@H](O)c5ccc(c(Cl)c5)Oc5cc4cc(c5O[C@@H]4O[C@H](CO)[C@@H](O)[C@H](O)[C@H]4O[C@H]4C[C@](C)(N)[C@H](O)[C@H](C)O4)Oc4ccc(cc4Cl)[C@H]2O)c2ccc(O)c-3c2)cc1` (atropisomer, axis not shown) [Compound 354]: the MIC in assay [1] (Staphylococcus aureus, MRSA) lay within 0.01 to 0.5 µg/mL (≈ 0.00557 to 0.279 µM); in [2] (setting [11]), 0.01 to 0.5 µg/mL (≈ 0.00557 to 0.279 µM); in assay [3] (setting [12]) it was 0.01 to 0.5 µg/mL (≈ 0.00557 to 0.279 µM); in [4] (setting [13]), 0.5 to 1 µg/mL (≈ 0.279 to 0.557 µM); in assay [5] (setting [14]), 2 to 4 µg/mL (≈ 1.11 to 2.23 µM); in [6] (setting [15]) it was 0.01 to 0.5 µg/mL (≈ 0.00557 to 0.279 µM). For the same molecule, the minimum inhibitory concentration (MIC) (with Enterococcus faecium 800 (setting [16]); in assay [7] (setting [17]); in assay [8] (setting [18]); in assay [9] (setting [19]); in assay [10] (setting [20])) was 0.01 to 0.5 µg/mL (≈ 0.00557 to 0.279 µM) in each case.
Take `CCCCCCCOc1ccc(S(=O)(=O)NCCCCCCNC(=O)Oc2cc(O)c3c(c2)[C@@H](C(=O)O)NC(=O)[C@H]2NC(=O)[C@H](NC(=O)[C@@H]4NC(=O)[C@H](CC(N)=O)NC(=O)[C@H](NC(=O)[C@@H](CC(C)C)NC)[C@H](O)c5ccc(c(Cl)c5)Oc5cc4cc(c5O[C@@H]4O[C@H](CO)[C@@H](O)[C@H](O)[C@H]4O[C@H]4C[C@](C)(N)[C@H](O)[C@H](C)O4)Oc4ccc(cc4Cl)[C@H]2O)c2ccc(O)c-3c2)cc1` (atropisomer, axis not shown) [Compound 355]: the minimal inhibitory concentration (MIC) in assay [1] (Staphylococcus aureus, MRSA) is 0.01 to 0.5 µg/mL (≈ 0.00542 to 0.271 µM); in assay [2] (setting [11]), 0.01 to 0.5 µg/mL (≈ 0.00542 to 0.271 µM); in [3] (setting [12]) it was 0.01 to 0.5 µg/mL (≈ 0.00542 to 0.271 µM); in assay [4] (setting [13]) it was 0.5 to 1 µg/mL (≈ 0.271 to 0.542 µM); in assay [5] (setting [14]), 1 to 2 µg/mL (≈ 0.542 to 1.08 µM); in assay [6] (setting [15]), 0.01 to 0.5 µg/mL (≈ 0.00542 to 0.271 µM). Besides, the MIC (with Enterococcus faecium 800 (setting [16]); in assay [7] (setting [17]); in [8] (setting [18]); in assay [9] (setting [19]); in assay [10] (setting [20])) was 0.01 to 0.5 µg/mL (≈ 0.00542 to 0.271 µM) each time.
